Assay results as given in PubChem BioAssay AID1963864 (Molecular Pharmacology Branch, DTP, NCI, 2024).

Test system: KRAS PDC multicell spheroid viability
Assay: Anticancer human tumor 521955-158-R6-J3-PDC patient-derived pancreatic carcinoma cell line growth inhibition [KRAS2]
Settings: for IC50: curve of first compound; for viability, T/C: stronger effect = lower value
In short: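 KRAS-mutant tumor cells were grown as spheroids with HUVEC endothelial cells and human MSCs as stroma. Targeted agents were tested alone and with KRAS pathway inhibitors. Doses started at or near clinical Cmax, or 10 microM, descending half-log.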

[1] = second compound 0.0316 µM, first compound 0.000316 µM
[2] = second compound 0.0316 µM, first compound 0.001 µM
[3] = second compound 0.0316 µM, first compound 0.00316 µM
[4] = second compound 0.0316 µM, first compound 0.01 µM
[5] = second compound 0.0316 µM, first compound 0.0316 µM
[6] = second compound 0.1 µM, first compound 0.000316 µM
[7] = second compound 0.1 µM, first compound 0.001 µM
[8] = second compound 0.1 µM, first compound 0.00316 µM
[9] = second compound 0.1 µM, first compound 0.01 µM
[10] = second compound 0.1 µM, first compound 0.0316 µM
[11] = second compound 0.316 µM, first compound 0.000316 µM
[12] = second compound 0.316 µM, first compound 0.001 µM
[13] = second compound 0.316 µM, first compound 0.00316 µM
[14] = second compound 0.316 µM, first compound 0.01 µM
[15] = second compound 0.316 µM, first compound 0.0316 µM
[16] = second compound 1 µM, first compound 0.000316 µM
[17] = second compound 1 µM, first compound 0.001 µM
[18] = second compound 1 µM, first compound 0.00316 µM
[19] = second compound 1 µM, first compound 0.01 µM
[20] = second compound 1 µM, first compound 0.0316 µM
[21] = second compound 3.16 µM, first compound 0.000316 µM
[22] = second compound 3.16 µM, first compound 0.001 µM
[23] = second compound 3.16 µM, first compound 0.00316 µM
[24] = second compound 3.16 µM, first compound 0.01 µM
[25] = second compound 3.16 µM, first compound 0.0316 µM
[26] = second compound 0.0316 µM, first compound 0.1 µM
[27] = second compound 0.1 µM, first compound 0.1 µM
[28] = second compound 0.316 µM, first compound 0.1 µM
[29] = second compound 1 µM, first compound 0.1 µM
[30] = second compound 3.16 µM, first compound 0.1 µM
[31] = second compound 0.0316 µM, first compound 0.316 µM
[32] = second compound 0.0316 µM, first compound 1 µM
[33] = second compound 0.0316 µM, first compound 3.16 µM
[34] = second compound 0.0316 µM, first compound 10 µM
[35] = second compound 0.1 µM, first compound 0.316 µM
[36] = second compound 0.1 µM, first compound 1 µM
[37] = second compound 0.1 µM, first compound 3.16 µM
[38] = second compound 0.1 µM, first compound 10 µM
[39] = second compound 0.316 µM, first compound 0.316 µM
[40] = second compound 0.316 µM, first compound 1 µM
[41] = second compound 0.316 µM, first compound 3.16 µM
[42] = second compound 0.316 µM, first compound 10 µM
[43] = second compound 1 µM, first compound 0.316 µM
[44] = second compound 1 µM, first compound 1 µM
[45] = second compound 1 µM, first compound 3.16 µM
[46] = second compound 1 µM, first compound 10 µM
[47] = second compound 3.16 µM, first compound 0.316 µM
[48] = second compound 3.16 µM, first compound 1 µM
[49] = second compound 3.16 µM, first compound 3.16 µM
[50] = second compound 3.16 µM, first compound 10 µM
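Note: drug exposure lasted seven days.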
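Throughout, for viability, T/C: 100% = DMSO vehicle wells and lower means fewer viable cells.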

Structure (SMILES): CC(=O)Nc1cccc(-n2c(=O)n(C3CC3)c(=O)c3c(Nc4ccc(I)cc4F)n(C)c(=O)c(C)c32)c1 + C=CC(=O)N1CCN(c2nc(OCC3CCCN3C)nc3c2CCN(c2cccc4cccc(C)c24)C3)CC1CC#N
- IC50 (second compound 0.0316 µM): > 0.0316 µM
- IC50 (second compound 0.1 µM): 0.0284 µM
- IC50 (second compound 0.316 µM): 0.0212 µM
- IC50 (second compound 1 µM): 0.00967 µM
- IC50 (second compound 3.16 µM): < 0.0001 µM
- viability, T/C (second compound 0.0316 µM, first compound 0.0001 µM): 109%
- viability, T/C [1]: 109%
- viability, T/C [2]: 108%
- viability, T/C [3]: 83.2%
- viability, T/C [4]: 83.9%
- viability, T/C [5]: 52.8%
- viability, T/C (second compound 0.1 µM, first compound 0.0001 µM): 93.1%
- viability, T/C [6]: 111%
- viability, T/C [7]: 100%
- viability, T/C [8]: 81.4%
- viability, T/C [9]: 76.8%
- viability, T/C [10]: 46.8%
- viability, T/C (second compound 0.316 µM, first compound 0.0001 µM): 89.4%
- viability, T/C [11]: 96%
- viability, T/C [12]: 101%
- viability, T/C [13]: 83.9%
- viability, T/C [14]: 66.8%
- viability, T/C [15]: 41.2%
- viability, T/C (second compound 1 µM, first compound 0.0001 µM): 72.4%
- viability, T/C [16]: 72.4%
- viability, T/C [17]: 87.1%
- viability, T/C [18]: 65.4%
- viability, T/C [19]: 50.9%
- viability, T/C [20]: 38%
- viability, T/C (second compound 3.16 µM, first compound 0.0001 µM): 40.3%
- viability, T/C [21]: 52.7%
- viability, T/C [22]: 24.4%
- viability, T/C [23]: 29.1%
- viability, T/C [24]: 2.14%
- viability, T/C [25]: 8.79%

Structure (SMILES): CN(C)C/C=C/C(=O)Nc1cc2c(Nc3ccc(F)c(Cl)c3)ncnc2cc1O[C@H]1CCOC1 + C=CC(=O)N1CCN(c2nc(OCC3CCCN3C)nc3c2CCN(c2cccc4cccc(C)c24)C3)CC1CC#N
- IC50 (second compound 0.0316 µM): > 0.1 µM
- IC50 (second compound 0.1 µM): > 0.1 µM
- IC50 (second compound 0.316 µM): > 0.1 µM
- IC50 (second compound 1 µM): > 0.1 µM
- IC50 (second compound 3.16 µM): < 0.000316 µM
- viability, T/C [1]: 108%
- viability, T/C [2]: 92.2%
- viability, T/C [3]: 81.8%
- viability, T/C [4]: 72.4%
- viability, T/C [5]: 66%
- viability, T/C [26]: 66.8%
- viability, T/C [6]: 97.2%
- viability, T/C [7]: 93.8%
- viability, T/C [8]: 89.6%
- viability, T/C [9]: 64.7%
- viability, T/C [10]: 72.4%
- viability, T/C [27]: 61.8%
- viability, T/C [11]: 99.9%
- viability, T/C [12]: 92.2%
- viability, T/C [13]: 91%
- viability, T/C [14]: 78.7%
- viability, T/C [15]: 68%
- viability, T/C [28]: 67.6%
- viability, T/C [16]: 91.9%
- viability, T/C [17]: 93.4%
- viability, T/C [18]: 81.3%
- viability, T/C [19]: 63.4%
- viability, T/C [20]: 64.1%
- viability, T/C [29]: 64.5%
- viability, T/C [21]: 48.5%
- viability, T/C [22]: 32.9%
- viability, T/C [23]: 15.2%
- viability, T/C [24]: 12.7%
- viability, T/C [25]: 12.8%
- viability, T/C [30]: 23.1%

Structure (SMILES): COC(=O)c1ccc2c(C(=Nc3ccc(N(C)C(=O)CN4CCN(C)CC4)cc3)c3ccccc3)c(O)[nH]c2c1 + C=CC(=O)N1CCN(c2nc(OCC3CCCN3C)nc3c2CCN(c2cccc4cccc(C)c24)C3)CC1CC#N
- IC50 (second compound 0.0316 µM): 3.09 µM
- IC50 (second compound 0.1 µM): 2.84 µM
- IC50 (second compound 0.316 µM): 2.84 µM
- IC50 (second compound 1 µM): 1.83 µM
- IC50 (second compound 3.16 µM): < 0.0316 µM
- viability, T/C [5]: 96.2%
- viability, T/C [26]: 110%
- viability, T/C [31]: 116%
- viability, T/C [32]: 123%
- viability, T/C [33]: 48.8%
- viability, T/C [34]: 0.2%
- viability, T/C [10]: 91.8%
- viability, T/C [27]: 116%
- viability, T/C [35]: 102%
- viability, T/C [36]: 111%
- viability, T/C [37]: 44.3%
- viability, T/C [38]: 1.53%
- viability, T/C [15]: 79.7%
- viability, T/C [28]: 102%
- viability, T/C [39]: 103%
- viability, T/C [40]: 106%
- viability, T/C [41]: 45.1%
- viability, T/C [42]: 1.91%
- viability, T/C [20]: 74.3%
- viability, T/C [29]: 75.5%
- viability, T/C [43]: 90.2%
- viability, T/C [44]: 95.4%
- viability, T/C [45]: 19.1%
- viability, T/C [46]: 1.01%
- viability, T/C [25]: 36.9%
- viability, T/C [30]: 31.4%
- viability, T/C [47]: 37.8%
- viability, T/C [48]: 5.71%
- viability, T/C [49]: 1.1%
- viability, T/C [50]: 0.76%

Structure (SMILES): O=C(c1cc(Cc2n[nH]c(=O)c3ccccc23)ccc1F)N1CCN(C(=O)C2CC2)CC1 + C=CC(=O)N1CCN(c2nc(OCC3CCCN3C)nc3c2CCN(c2cccc4cccc(C)c24)C3)CC1CC#N
- IC50 (second compound 0.0316 µM): > 10 µM
- IC50 (second compound 0.1 µM): > 10 µM
- IC50 (second compound 0.316 µM): > 10 µM
- IC50 (second compound 1 µM): > 10 µM
- IC50 (second compound 3.16 µM): < 0.0316 µM
- viability, T/C [5]: 90%
- viability, T/C [26]: 97%
- viability, T/C [31]: 96.7%
- viability, T/C [32]: 96.4%
- viability, T/C [33]: 89.4%
- viability, T/C [34]: 111%
- viability, T/C [10]: 97.9%
- viability, T/C [27]: 96.4%
- viability, T/C [35]: 97.5%
- viability, T/C [36]: 83.5%
- viability, T/C [37]: 87.5%
- viability, T/C [38]: 101%
- viability, T/C [15]: 97.5%
- viability, T/C [28]: 107%
- viability, T/C [39]: 103%
- viability, T/C [40]: 84.9%
- viability, T/C [41]: 87.3%
- viability, T/C [42]: 93.6%
- viability, T/C [20]: 89.9%
- viability, T/C [29]: 95.3%
- viability, T/C [43]: 79%
- viability, T/C [44]: 73.4%
- viability, T/C [45]: 86.2%
- viability, T/C [46]: 90.5%
- viability, T/C [25]: 42.9%
- viability, T/C [30]: 31.2%
- viability, T/C [47]: 24.1%
- viability, T/C [48]: 24.4%
- viability, T/C [49]: 39.9%
- viability, T/C [50]: 12.4%
